Reference: PMC4780864, “Family-wide Structural Analysis of Human Numb-Associated Protein Kinases” (Structure(London, England:1993), 2016)

Legend:
Assay in all cases: biochemical
MPSK1 = target: T1, MPSK1 (Homo sapiens, UniProt O75716); design: Thermal shift assay (DSF, SYPRO Orange), 2 uM kinase domain, mean delta Tm of triplicates versus DMSO; conditions: for ΔTm at 12.5 µM: read-out: MPSK1
T1 construct: gene STK16; catalytic domain-containing construct
Experimental: (§1) All measurements were performed in triplicate and mean values were reported for all compounds (Table S1). […] However, NAKs are often omitted from selectivity panels, including commercial screens.

GAK = target: T2, GAK (Homo sapiens, UniProt O14976); design: Thermal shift assay (DSF, SYPRO Orange), 2 uM kinase domain, mean delta Tm of triplicates versus DMSO; conditions: for ΔTm at 12.5 µM: read-out: GAK
T2 construct: catalytic domain-containing construct
T2 sequence (O14976 1-1311): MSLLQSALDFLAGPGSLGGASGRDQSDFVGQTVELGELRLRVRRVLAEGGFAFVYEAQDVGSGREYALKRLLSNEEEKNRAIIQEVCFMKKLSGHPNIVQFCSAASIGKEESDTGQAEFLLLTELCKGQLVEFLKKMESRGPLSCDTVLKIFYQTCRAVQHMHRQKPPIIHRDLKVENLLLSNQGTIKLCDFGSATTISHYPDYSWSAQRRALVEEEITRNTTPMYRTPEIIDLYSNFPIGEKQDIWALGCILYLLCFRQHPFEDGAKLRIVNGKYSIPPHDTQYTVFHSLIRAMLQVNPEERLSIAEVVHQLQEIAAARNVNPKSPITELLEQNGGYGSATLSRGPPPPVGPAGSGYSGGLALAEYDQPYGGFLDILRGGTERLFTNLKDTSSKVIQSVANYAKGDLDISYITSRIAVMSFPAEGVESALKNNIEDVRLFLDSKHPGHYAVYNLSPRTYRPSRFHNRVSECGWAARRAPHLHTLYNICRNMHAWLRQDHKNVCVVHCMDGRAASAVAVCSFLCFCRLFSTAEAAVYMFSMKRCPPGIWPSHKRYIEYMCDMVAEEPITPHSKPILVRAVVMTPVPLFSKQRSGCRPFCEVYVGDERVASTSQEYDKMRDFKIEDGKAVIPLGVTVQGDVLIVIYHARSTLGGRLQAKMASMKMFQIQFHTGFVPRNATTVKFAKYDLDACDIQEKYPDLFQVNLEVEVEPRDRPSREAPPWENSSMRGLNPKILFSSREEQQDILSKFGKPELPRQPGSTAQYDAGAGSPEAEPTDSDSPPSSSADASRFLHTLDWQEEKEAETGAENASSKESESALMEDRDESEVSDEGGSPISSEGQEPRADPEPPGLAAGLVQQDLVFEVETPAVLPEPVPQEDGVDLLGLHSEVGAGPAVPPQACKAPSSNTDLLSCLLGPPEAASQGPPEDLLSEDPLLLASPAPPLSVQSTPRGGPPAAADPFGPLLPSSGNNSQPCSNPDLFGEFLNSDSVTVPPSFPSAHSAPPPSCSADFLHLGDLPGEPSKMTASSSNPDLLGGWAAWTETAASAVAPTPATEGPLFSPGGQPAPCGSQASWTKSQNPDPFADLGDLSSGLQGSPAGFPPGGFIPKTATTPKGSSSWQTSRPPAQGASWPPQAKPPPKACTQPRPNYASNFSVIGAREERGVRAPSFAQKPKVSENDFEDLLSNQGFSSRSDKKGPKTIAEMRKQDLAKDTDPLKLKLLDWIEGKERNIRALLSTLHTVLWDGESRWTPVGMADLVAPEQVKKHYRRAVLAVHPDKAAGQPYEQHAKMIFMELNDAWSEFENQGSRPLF
Experimental: as §1

BIKE = target: T3, BIKE (Homo sapiens, UniProt Q9NSY1); design: Thermal shift assay (DSF, SYPRO Orange), 2 uM kinase domain, mean delta Tm of triplicates versus DMSO; conditions: read-out: BIKE
T3 construct: gene BMP2K; catalytic domain-containing construct
T3 sequence (Q9NSY1 whole entry, the tested form may be a part): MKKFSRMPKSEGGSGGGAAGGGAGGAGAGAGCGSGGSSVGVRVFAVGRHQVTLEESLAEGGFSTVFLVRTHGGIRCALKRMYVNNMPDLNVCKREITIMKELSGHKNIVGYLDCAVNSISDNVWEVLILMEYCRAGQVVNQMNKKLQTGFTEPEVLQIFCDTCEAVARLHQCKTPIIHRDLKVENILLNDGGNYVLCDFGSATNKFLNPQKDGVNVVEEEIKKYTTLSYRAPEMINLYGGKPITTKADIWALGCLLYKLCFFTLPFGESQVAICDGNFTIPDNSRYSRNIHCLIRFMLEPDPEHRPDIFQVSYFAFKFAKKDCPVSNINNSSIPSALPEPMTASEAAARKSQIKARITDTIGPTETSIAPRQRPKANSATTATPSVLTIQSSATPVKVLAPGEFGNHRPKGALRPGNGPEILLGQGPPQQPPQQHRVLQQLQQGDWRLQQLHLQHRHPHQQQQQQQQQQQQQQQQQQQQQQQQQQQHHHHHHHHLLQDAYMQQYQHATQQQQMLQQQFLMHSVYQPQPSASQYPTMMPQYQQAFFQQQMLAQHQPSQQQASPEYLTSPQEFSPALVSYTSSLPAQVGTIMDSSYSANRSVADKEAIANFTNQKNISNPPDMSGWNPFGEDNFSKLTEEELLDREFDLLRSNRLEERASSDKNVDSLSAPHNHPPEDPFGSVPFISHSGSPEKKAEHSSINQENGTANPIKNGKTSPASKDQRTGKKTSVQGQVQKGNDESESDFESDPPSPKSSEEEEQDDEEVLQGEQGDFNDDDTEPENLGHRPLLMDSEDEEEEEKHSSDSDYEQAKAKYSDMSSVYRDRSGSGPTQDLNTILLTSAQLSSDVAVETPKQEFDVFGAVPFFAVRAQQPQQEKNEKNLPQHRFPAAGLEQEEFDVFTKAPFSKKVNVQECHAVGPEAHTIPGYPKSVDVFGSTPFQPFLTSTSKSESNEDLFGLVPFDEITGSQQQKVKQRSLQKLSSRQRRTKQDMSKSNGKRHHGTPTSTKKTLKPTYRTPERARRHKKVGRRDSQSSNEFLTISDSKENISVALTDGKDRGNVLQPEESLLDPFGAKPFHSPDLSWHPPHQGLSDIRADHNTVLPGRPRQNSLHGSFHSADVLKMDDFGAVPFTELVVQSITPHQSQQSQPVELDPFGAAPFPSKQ
Experimental: as §1

AAK1 = AAK1 (Homo sapiens, UniProt Q2M2I8); design: kinase domain; Thermal shift assay (DSF, SYPRO Orange), 2 uM kinase domain, mean delta Tm of triplicates versus DMSO; conditions: for ΔTm at 12.5 µM: read-out: AAK1
AAK1, sequence (Q2M2I8 27-365 limits assumed): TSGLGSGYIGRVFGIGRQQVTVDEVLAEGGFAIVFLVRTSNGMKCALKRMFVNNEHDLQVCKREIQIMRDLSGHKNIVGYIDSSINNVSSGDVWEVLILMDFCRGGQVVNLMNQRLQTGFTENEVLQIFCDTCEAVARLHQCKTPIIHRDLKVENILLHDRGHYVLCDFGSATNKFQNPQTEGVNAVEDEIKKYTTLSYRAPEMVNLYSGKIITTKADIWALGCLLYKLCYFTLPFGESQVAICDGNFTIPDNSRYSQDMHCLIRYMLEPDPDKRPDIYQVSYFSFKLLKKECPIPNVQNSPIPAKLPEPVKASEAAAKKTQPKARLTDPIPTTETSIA
Experimental: as §1

T1 sequence (O75716 whole entry, the tested form may be a part): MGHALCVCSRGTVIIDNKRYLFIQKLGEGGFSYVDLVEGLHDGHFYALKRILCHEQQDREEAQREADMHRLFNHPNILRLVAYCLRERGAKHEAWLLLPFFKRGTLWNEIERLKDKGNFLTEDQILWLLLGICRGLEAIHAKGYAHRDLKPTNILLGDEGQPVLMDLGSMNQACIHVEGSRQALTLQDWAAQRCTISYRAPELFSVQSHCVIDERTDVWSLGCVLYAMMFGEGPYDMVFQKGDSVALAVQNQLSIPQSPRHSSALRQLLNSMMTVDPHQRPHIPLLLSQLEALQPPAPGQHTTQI

| Structure (SMILES) | ΔTm at 12.5 µM (MPSK1) | ΔTm at 12.5 µM (GAK) | ΔTm at 12.5 µM (BIKE) | ΔTm at 12.5 µM (AAK1) | MPSK1 (MPSK1; 12.5 µM) | GAK (GAK; 12.5 µM) | AAK1 (AAK1; 12.5 µM) |
| --- | --- | --- | --- | --- | --- | --- | --- |
| Cn1c(Nc2ccc(C(F)(F)F)cc2)nc2cc(Oc3ccnc(-c4ncc(C(F)(F)F)[nH]4)c3)ccc21 [RAF265] | 1.67 °C | 7.37 °C | 1.07 °C | 1.45 °C |  |  |  |
| Cc1cnc(NC(=O)Nc2cc(Br)c(C)cc2OC[C@@H]2CNCCO2)cn1 [Rabusertib] | 2.49 °C | -0.263 °C | 3.04 °C | 1.55 °C |  |  |  |
| CC(C)(C)Cn1c(N)nc2ccc(-c3[nH]c(C(C)(C)C)nc3-c3ccc(F)cc3)nc21 [Ralimetinib] | 1.32 °C | 9.03 °C | 1.12 °C | 0.397 °C |  |  |  |
| CNC(=O)c1cc(Oc2ccc(NC(=O)Nc3cc(C(C)(C)C)nn3-c3ccc4ncccc4c3)c(F)c2)ccn1 [Rebastinib] | 0.907 °C | 9.94 °C | 0.707 °C | 0.473 °C |  |  |  |
| COc1cc(F)c(F)c(Nc2ccc(I)cc2F)c1NS(=O)(=O)C1(C[C@H](O)CO)CC1 [Refametinib] | 0.663 °C | -1.26 °C | -0.02 °C | -0.0333 °C |  |  |  |
| CNC(=O)c1cc(Oc2ccc(NC(=O)Nc3ccc(Cl)c(C(F)(F)F)c3)c(F)c2)ccn1 [Regorafenib] | 0.88 °C | 5.87 °C | 0.423 °C | 1.02 °C |  |  |  |
| COc1cc(OC)c(/C=C/S(=O)(=O)Cc2ccc(OC)c(NCC(=O)O)c2)c(OC)c1 [Rigosertib] | 0.583 °C | -0.48 °C | 0.203 °C | 0.19 °C |  |  |  |
| CN(C)C[C@@H]1CCn2cc(c3ccccc32)C2=C(C(=O)NC2=O)c2cn(c3ccccc23)CCO1 [Ruboxistaurin] | 1.86 °C | 1.03 °C | 9.4 °C | 5.19 °C |  |  |  |
| N#CC[C@H](C1CCCC1)n1cc(-c2ncnc3[nH]ccc23)cn1 [Ruxolitinib] |  | 2.88 °C | 8.65 °C | 6.18 °C | 5.233 °C |  |  |
| O=C(Nc1ccc2[nH]nc(-c3ccncc3)c2c1)[C@@H]1CCN(CC(=O)N2CCN(c3ccc(-c4ncccn4)cc3)CC2)C1 [SCH772984] | 0.0567 °C | 0.343 °C | 0.9 °C | 0.0767 °C |  |  |  |
| CN1CCC(CNc2ccc3ncc(-c4cccc(OC(F)(F)F)c4)n3n2)CC1 [SGI-1776] | 3.24 °C | 3.81 °C | 10.2 °C | 6.74 °C |  |  |  |
| CC(C)(C)c1cnc(CSc2cnc(NC(=O)C3CCNCC3)s2)o1 [SNS-032] | 3.53 °C | 0.0467 °C | 1.11 °C | 0.69 °C |  |  |  |
| Oc1c2ccccc2c2c3c(cccc13)N=N2 [SP600125] | 0.11 °C | 0.24 °C | 14.2 °C | 6.88 °C |  |  |  |
| CN1CCN(CCOc2cc(OC3CCOCC3)c3c(Nc4c(Cl)ccc5c4OCO5)ncnc3c2)CC1 [Saracatinib] | 0.66 °C | 7.95 °C | 4.59 °C | 0.31 °C |  |  |  |
| CC[C@H](CO)Nc1nc(NCc2ccccc2)c2ncn(C(C)C)c2n1 [Seliciclib] | 2.4 °C | -0.34 °C | 0.43 °C | 0.393 °C |  |  |  |
| Cn1cnc2c(F)c(Nc3ccc(Br)cc3Cl)c(C(=O)NOCCO)cc21 [Selumetinib] | 0.797 °C | -0.847 °C | 0.227 °C | 0.343 °C |  |  |  |
| C=CCN(/C=C1/C(=O)O[C@H](COC)[C@@]2(C)C1=C(O)C(=O)C1=C2[C@H](OC(C)=O)C[C@]2(C)C(=O)CC[C@@H]12)CC=C [Sonolisib] | 0.147 °C | 0.82 °C | -1.36 °C | -0.183 °C |  |  |  |

| Structure (SMILES) | ΔTm at 12.5 µM (MPSK1) | ΔTm at 12.5 µM (GAK) | ΔTm at 12.5 µM (BIKE) | ΔTm at 12.5 µM (AAK1) | MPSK1 (MPSK1; 12.5 µM) | GAK (GAK; 12.5 µM) | AAK1 (AAK1; 12.5 µM) |
| --- | --- | --- | --- | --- | --- | --- | --- |
| CNC(=O)c1cc(Oc2ccc(NC(=O)Nc3ccc(Cl)c(C(F)(F)F)c3)cc2)ccn1 [Sorafenib] | 0.873 °C | 5.42 °C | 0.73 °C | 1.03 °C |  |  |  |
| CN1CCN(c2nc(C3=C(c4c[nH]c5ccccc45)C(=O)NC3=O)c3ccccc3n2)CC1 [Sotrastaurin] | 1.8 °C | 0.62 °C | 3.16 °C | 1.63 °C |  |  |  |
| CCN(CC)CCNC(=O)c1c(C)[nH]c(/C=C2\C(=O)Nc3ccc(F)cc32)c1C [Sunitinib] | 6.79 °C |  | 13.9 °C |  |  | 4.647 °C | 8.67 °C |
| Cn1c(=O)c(F)c(Nc2ccc(I)cc2F)c2c(=O)n(C[C@@H](O)CO)cnc21 [TAK-733] | 0.277 °C | -0.183 °C | 0.177 °C | 0.0367 °C |  |  |  |
| CCS(=O)(=O)c1cccc(-c2cc(C(=O)NC3CCN(C)CC3)c(C)c3[nH]c4ncc(C)cc4c23)c1 [TAK-901] | 10.7 °C | 3.35 °C | 12 °C | 5.22 °C |  |  |  |
| Cc1cc(C(C)Nc2ccccc2)c2nc(N3CCOCC3)cc(=O)n2c1 (stereo not shown) [TGX-221] | 1.43 °C | -0.347 °C | 0.5 °C | 0.26 °C |  |  |  |
| COc1cc(Nc2ncc(F)c(Nc3ccc4c(n3)NC(=O)C(C)(C)O4)n2)cc(OC)c1OC [Tamatinib] | 14.1 °C | 3.48 °C | 6.55 °C | 7 °C |  |  |  |
| COc1cc2c(N3CCN(C(=O)Nc4ccc(OC(C)C)cc4)CC3)ncnc2cc1OCCCN1CCCCC1 [Tandutinib] | 1.21 °C | 0.06 °C | 1.76 °C | 0.57 °C |  |  |  |
| O=c1sn(-c2cccc3ccccc23)c(=O)n1Cc1ccccc1 [Tideglusib] | 0.443 °C | -0.487 °C | 0.245 °C | 0.24 °C |  |  |  |
| O=C1NC(=O)[C@@H](c2cn3c4c(cccc24)CCC3)[C@@H]1c1c[nH]c2ccccc12 [Tivantinib] | 0.87 °C | -0.823 °C | 0.697 °C | 0.46 °C |  |  |  |
| COc1cc2nccc(Oc3ccc(NC(=O)Nc4cc(C)on4)c(Cl)c3)c2cc1OC [Tivozanib] | 1.4 °C | 6.98 °C | 3.87 °C | 3.15 °C |  |  |  |
| C[C@@H]1CCN(C(=O)CC#N)C[C@@H]1N(C)c1ncnc2[nH]ccc12 [Tofacitinib] | 1.35 °C | -0.58 °C | 2.18 °C | 0.68 °C |  |  |  |
| CC(=O)Nc1cccc(-n2c(=O)n(C3CC3)c(=O)c3c(Nc4ccc(I)cc4F)n(C)c(=O)c(C)c32)c1 [Trametinib] | 0.827 °C | -0.66 °C | 0.423 °C | 0.367 °C |  |  |  |
| CN[C@@H]1C[C@H]2O[C@@](C)([C@@H]1OC)n1c3ccccc3c3c4c(c5c6ccccc6n2c5c31)C(=O)N[C@H]4O [UCN-01] | 4.49 °C | 4.03 °C | 13.1 °C | 9.91 °C |  |  |  |
| Cc1cnc(Nc2ccc(F)cc2Cl)nc1-c1c[nH]c(C(=O)N[C@H](CO)c2cccc(Cl)c2)c1 [VX-11E] | 0.627 °C | -1.45 °C | 0.147 °C | -0.203 °C |  |  |  |
| COc1cc2/c(=N/c3ccc(Br)cc3F)nc[nH]c2cc1OCC1CCN(C)CC1 [Vandetanib] | 1.1 °C | 1.75 °C | 0.127 °C | 1.05 °C |  |  |  |
| Clc1ccc(Nc2nnc(Cc3ccncc3)c3ccccc23)cc1 [Vatalanib] | 0.513 °C | 0.0567 °C | 0.423 °C | 0.303 °C |  |  |  |
